Measurements: the supplement of paper PMC10307832

Experiments:
Test in all cases: relative viability (nuclei count vs DMSO), 5 days (fraction); higher = more cells survive
Vismodegib + Olaparib = compound: CS(=O)(=O)c1ccc(C(=O)Nc2ccc(Cl)c(-c3ccccn3)c2)c(Cl)c1 [Vismodegib] + O=C(c1cc(Cc2n[nH]c(=O)c3ccccc23)ccc1F)N1CCN(C(=O)C2CC2)CC1 [Olaparib] (partner 8 µM)
How it was run: (§1)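 Relative viability was taken as the ratio of nuclei in treated wells to nuclei in vehicle wells. Lung cancer cell lines in 1536-well plates received compounds by pin tool one day after seeding, either one drug alone or a fixed anchor-drug dose plus five library-drug doses (not always all listed) in √10 steps. Nuclei were counted on 4× images after 5 days of treatment, and values are medians of duplicate plates.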

Vismodegib + Pemetrexed = compound: CS(=O)(=O)c1ccc(C(=O)Nc2ccc(Cl)c(-c3ccccn3)c2)c(Cl)c1 [Vismodegib] + Nc1nc2[nH]cc(CCc3ccc(C(=O)N[C@@H](CCC(=O)O)C(=O)O)cc3)c2c(=O)[nH]1 [Pemetrexed] (partner 0.2 µM)
How it was run: as §1

VE-821 + Olaparib = compound: CS(=O)(=O)c1ccc(-c2cnc(N)c(C(=O)Nc3ccccc3)n2)cc1 [VE-821] + O=C(c1cc(Cc2n[nH]c(=O)c3ccccc23)ccc1F)N1CCN(C(=O)C2CC2)CC1 [Olaparib] (partner 8 µM)
How it was run: as §1

Vismodegib + Phenformin = compound: CS(=O)(=O)c1ccc(C(=O)Nc2ccc(Cl)c(-c3ccccn3)c2)c(Cl)c1 [Vismodegib] + N=C(N)NC(=N)NCCc1ccccc1 [Phenformin] (partner 250 µM)
How it was run: as §1

LU99A
relative viability (Vismodegib + Olaparib; first compound 0.08 µM): 0.306 | relative viability (Vismodegib + Olaparib; first compound 0.253 µM): 0.278 | relative viability (Vismodegib + Olaparib; first compound 0.8 µM): 0.292 | relative viability (Vismodegib + Olaparib; first compound 2.53 µM): 0.267 | relative viability (Vismodegib + Olaparib; first compound 8 µM): 0.247 | relative viability (Vismodegib + Pemetrexed; first compound 0.08 µM): 0.187 | relative viability (Vismodegib + Pemetrexed; first compound 0.253 µM): 0.164 | relative viability (Vismodegib + Pemetrexed; first compound 0.8 µM): 0.246 | relative viability (Vismodegib + Pemetrexed; first compound 2.53 µM): 0.163 | relative viability (Vismodegib + Pemetrexed; first compound 8 µM): 0.176 | relative viability (VE-821 + Olaparib; first compound 0.08 µM): 0.245 | relative viability (VE-821 + Olaparib; first compound 0.253 µM): 0.228 | relative viability (VE-821 + Olaparib; first compound 0.8 µM): 0.176 | relative viability (VE-821 + Olaparib; first compound 2.53 µM): 0.143 | relative viability (VE-821 + Olaparib; first compound 8 µM): 0.122 | relative viability (Vismodegib + Phenformin; first compound 0.08 µM): 0.901 | relative viability (Vismodegib + Phenformin; first compound 0.253 µM): 0.807 | relative viability (Vismodegib + Phenformin; first compound 0.8 µM): 0.813 | relative viability (Vismodegib + Phenformin; first compound 2.53 µM): 0.802 | relative viability (Vismodegib + Phenformin; first compound 8 µM): 0.772

NCI-H1915
relative viability (Vismodegib + Olaparib; first compound 0.08 µM): 0.276 | relative viability (Vismodegib + Olaparib; first compound 0.253 µM): 0.256 | relative viability (Vismodegib + Olaparib; first compound 0.8 µM): 0.244 | relative viability (Vismodegib + Olaparib; first compound 2.53 µM): 0.273 | relative viability (Vismodegib + Olaparib; first compound 8 µM): 0.232 | relative viability (Vismodegib + Pemetrexed; first compound 0.08 µM): 0.464 | relative viability (Vismodegib + Pemetrexed; first compound 0.253 µM): 0.434 | relative viability (Vismodegib + Pemetrexed; first compound 0.8 µM): 0.515 | relative viability (Vismodegib + Pemetrexed; first compound 2.53 µM): 0.444 | relative viability (Vismodegib + Pemetrexed; first compound 8 µM): 0.49 | relative viability (VE-821 + Olaparib; first compound 0.08 µM): 0.274 | relative viability (VE-821 + Olaparib; first compound 0.253 µM): 0.274 | relative viability (VE-821 + Olaparib; first compound 0.8 µM): 0.201 | relative viability (VE-821 + Olaparib; first compound 2.53 µM): 0.202 | relative viability (VE-821 + Olaparib; first compound 8 µM): 0.152 | relative viability (Vismodegib + Phenformin; first compound 0.08 µM): 0.368 | relative viability (Vismodegib + Phenformin; first compound 0.253 µM): 0.359 | relative viability (Vismodegib + Phenformin; first compound 0.8 µM): 0.381 | relative viability (Vismodegib + Phenformin; first compound 2.53 µM): 0.355 | relative viability (Vismodegib + Phenformin; first compound 8 µM): 0.357

EMC-BAC-2
relative viability (Vismodegib + Olaparib; first compound 0.08 µM): 0.523 | relative viability (Vismodegib + Olaparib; first compound 0.253 µM): 0.488 | relative viability (Vismodegib + Olaparib; first compound 0.8 µM): 0.487 | relative viability (Vismodegib + Olaparib; first compound 2.53 µM): 0.472 | relative viability (Vismodegib + Olaparib; first compound 8 µM): 0.526 | relative viability (Vismodegib + Pemetrexed; first compound 0.08 µM): 0.469 | relative viability (Vismodegib + Pemetrexed; first compound 0.253 µM): 0.442 | relative viability (Vismodegib + Pemetrexed; first compound 0.8 µM): 0.423 | relative viability (Vismodegib + Pemetrexed; first compound 2.53 µM): 0.461 | relative viability (Vismodegib + Pemetrexed; first compound 8 µM): 0.518 | relative viability (VE-821 + Olaparib; first compound 0.08 µM): 0.606 | relative viability (VE-821 + Olaparib; first compound 0.253 µM): 0.495 | relative viability (VE-821 + Olaparib; first compound 0.8 µM): 0.559 | relative viability (VE-821 + Olaparib; first compound 2.53 µM): 0.46 | relative viability (VE-821 + Olaparib; first compound 8 µM): 0.383 | relative viability (Vismodegib + Phenformin; first compound 0.08 µM): 0.571 | relative viability (Vismodegib + Phenformin; first compound 0.253 µM): 0.53 | relative viability (Vismodegib + Phenformin; first compound 0.8 µM): 0.5 | relative viability (Vismodegib + Phenformin; first compound 2.53 µM): 0.506 | relative viability (Vismodegib + Phenformin; first compound 8 µM): 0.502

201T
relative viability (Vismodegib + Olaparib; first compound 0.08 µM): 0.826 | relative viability (Vismodegib + Olaparib; first compound 0.253 µM): 0.875 | relative viability (Vismodegib + Olaparib; first compound 0.8 µM): 0.798 | relative viability (Vismodegib + Olaparib; first compound 2.53 µM): 0.845 | relative viability (Vismodegib + Olaparib; first compound 8 µM): 0.822 | relative viability (Vismodegib + Pemetrexed; first compound 0.08 µM): 0.323 | relative viability (Vismodegib + Pemetrexed; first compound 0.253 µM): 0.354 | relative viability (Vismodegib + Pemetrexed; first compound 0.8 µM): 0.336 | relative viability (Vismodegib + Pemetrexed; first compound 2.53 µM): 0.335 | relative viability (Vismodegib + Pemetrexed; first compound 8 µM): 0.297 | relative viability (VE-821 + Olaparib; first compound 0.08 µM): 0.859 | relative viability (VE-821 + Olaparib; first compound 0.253 µM): 0.819 | relative viability (VE-821 + Olaparib; first compound 0.8 µM): 0.826 | relative viability (VE-821 + Olaparib; first compound 2.53 µM): 0.748 | relative viability (VE-821 + Olaparib; first compound 8 µM): 0.623 | relative viability (Vismodegib + Phenformin; first compound 0.08 µM): 0.45 | relative viability (Vismodegib + Phenformin; first compound 0.253 µM): 0.49 | relative viability (Vismodegib + Phenformin; first compound 0.8 µM): 0.423 | relative viability (Vismodegib + Phenformin; first compound 2.53 µM): 0.45 | relative viability (Vismodegib + Phenformin; first compound 8 µM): 0.44
